In patent US20170253601A1, “Substituted Pyrrolidine Compounds” (EPIZYME, INC., priority 2014, published 2017) one finds IC50 data, which are given here for 32 compounds.

What is called IC50 is the concentration at which inhibition is half-maximal.

T1 sequence (Q9NRG4 whole entry): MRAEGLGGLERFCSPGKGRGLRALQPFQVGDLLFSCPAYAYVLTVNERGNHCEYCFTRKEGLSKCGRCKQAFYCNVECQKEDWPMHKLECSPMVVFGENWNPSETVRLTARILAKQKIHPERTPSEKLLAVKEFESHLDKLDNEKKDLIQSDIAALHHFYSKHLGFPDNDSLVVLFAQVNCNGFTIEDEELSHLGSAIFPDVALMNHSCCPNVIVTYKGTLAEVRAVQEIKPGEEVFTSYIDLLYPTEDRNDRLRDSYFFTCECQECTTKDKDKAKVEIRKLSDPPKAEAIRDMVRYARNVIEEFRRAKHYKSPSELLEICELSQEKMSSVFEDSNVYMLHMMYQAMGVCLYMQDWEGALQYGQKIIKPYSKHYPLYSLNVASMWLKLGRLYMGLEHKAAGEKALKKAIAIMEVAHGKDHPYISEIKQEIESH

The first test concerns the target T1, SMYD2 (Homo sapiens, UniProt Q9NRG4).
T1 construct: Full length SMYD2 (NP 064582.2) was cloned; His6 (N, cleaved yes); FLAG (N); made in house; host or cells: Sf9 insect cells
The test is described as follows: SMYD2 Biochemical Assay (3H-SAM, biotinylated peptide substrate, Flashplate). As to conditions: IC50 values are an average of n = 1 to n = 50; read-out: SMYD2 Biochem IC50 (μM)*. The gist of the method:
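Methyltransferase activity tracked as 3H transfer from 10 nM 3H-SAM to 60 nM biotinylated peptide, counted after streptavidin Flashplate capture and normalised to DMSO and 1000 uM SAH controls. Enzyme: 1.5 nM full-length Sf9-expressed SMYD2, 30 min compound pre-incubation at room temperature, in Bicine pH 7.6 buffer with 2% DMSO; reactions quenched with 600 uM unlabelled SAM; IC50 from 3- or 4-parameter fit.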
As for `C[C@H]1CN(Cc2cccc3[nH]ncc23)C[C@H]1NC(=O)c1cc(C2CC2)on1` (racemic) [compound 265, (±)-cis-5-cyclopropyl-N-[1-(1H-indazol-4-ylmethyl)-4-methylpyrrolidin-3-yl]-1,2-oxazole-3-carboxamide], the IC50 is 4.89 µM. On the same count and under the same terms, in the case of `C[C@H]1CN(CC(=O)N2CCNCC2)C[C@H]1NC(=O)c1cc(C2CC2)on1` (racemic) [compound 304, (±)-cis-5-cyclopropyl-N-{4-methyl-1-[2-oxo-2-(piperazin-1-yl)ethyl]pyrrolidin-3-yl}-1,2-oxazole-3-carboxamide] it was more than 50 µM; in that of `C[C@H]1CN(Cc2ccc3ncccc3c2)C[C@H]1NC(=O)c1cc(C2CC2)on1` (racemic) [compound 332, (±)-cis-5-cyclopropyl-N-[4-methyl-1-(quinolin-6-ylmethyl)pyrrolidin-3-yl]-1,2-oxazole-3-carboxamide], 24.2 µM; in that of `C[C@H]1CN(c2ncccn2)C[C@H]1NC(=O)c1cc(C2CC2)on1` (racemic) [compound 339, (±)-cis-5-cyclopropyl-N-[4-methyl-1-(pyrimidin-2-yl)pyrrolidin-3-yl]-1,2-oxazole-3-carboxamide], more than 50 µM.

On to `Cc1ccc2[nH]cc(CN3C[C@H](C)[C@H](NC(=O)c4cc(C5CC5)on4)C3)c2c1` (racemic) [compound 214, (±)-cis-5-cyclopropyl-N-[4-methyl-1-[(5-methyl-1H-indol-3-yl)methyl]pyrrolidin-3-yl]-1,2-oxazole-3-carboxamide], for which the IC50 was 29.5 µM.

As for `CC(C)N1C[C@H](NC(=O)c2cc(C3CC3)on2)[C@@](C)(O)C1` [compound 246, 5-cyclopropyl-N-[(3S,4S)-4-hydroxy-4-methyl-1-(propan-2-yl)pyrrolidin-3-yl]-1,2-oxazole-3-carboxamide], the IC50 is more than 50 µM. Turning to `C[C@@H]1CN(Cc2ncc[nH]2)C[C@H]1NC(=O)c1cc(C2CC2)on1` (racemic) [compound 139, (±)-trans-5-cyclopropyl-N-[1-(1H-imidazol-2-ylmethyl)-4-methylpyrrolidin-3-yl]-1,2-oxazole-3-carboxamide], the IC50 is more than 50 µM. The same measure, in the same setting: for `Cc1nn(C)cc1CN1C[C@@H](C)[C@H](NC(=O)c2cc(C3CC3)on2)C1` (racemic) [compound 183, (±)-trans-5-cyclopropyl-N-[1-[(1,3-dimethyl-1H-pyrazol-4-yl)methyl]-4-methylpyrrolidin-3-yl]-1,2-oxazole-3-carboxamide] the value was more than 50 µM; for `C[C@@H]1CN(Cc2cccnc2)C[C@H]1NC(=O)c1cc(C2CC2)on1` (racemic) [compound 124, (±)-trans-5-cyclopropyl-N-[4-methyl-1-(pyridin-3-ylmethyl)pyrrolidin-3-yl]-1,2-oxazole-3-carboxamide], more than 50 µM. Still for that read-out and setting: for `C[C@@H]1CN(CC(=O)N(C)C)C[C@H]1NC(=O)c1cc(C2CC2)on1` (racemic) [compound 277, (±)-trans-5-cyclopropyl-N-{1-[(dimethyl-carbamoyl)methyl]-4-methylpyrrolidin-3-yl}-1,2-oxazole-3-carboxamide] the value was more than 50 µM; for `C[C@@H]1CN(Cc2ccccn2)C[C@H]1NC(=O)c1cc(C2CC2)on1` (racemic) [compound 125, (±)-trans-5-cyclopropyl-N-[4-methyl-1-(pyridin-2-ylmethyl)pyrrolidin-3-yl]-1,2-oxazole-3-carboxamide], more than 50 µM. The same measure, in the same setting: in the case of `C[C@@H]1CN(c2ccccn2)C[C@H]1NC(=O)c1cc(C2CC2)on1` (racemic) [compound 312, (±)-trans-5-cyclopropyl-N-[4-methyl-1-(pyridin-2-yl)pyrrolidin-3-yl]-1,2-oxazole-3-carboxamide] it was more than 50 µM; in that of `CCC[C@H]1CN(C(C)C)C[C@@H]1NC(=O)c1cc(C2CC2)on1` (racemic) [compound 151, (±)-trans-5-cyclopropyl-N-[1-(propan-2-yl)-4-propylpyrrolidin-3-yl]-1,2-oxazole-3-carboxamide], more than 50 µM.

As for `CC(C)N1C[C@H](C)[C@H](NC(=O)c2cc(C3(O)COC3)on2)C1` (racemic) [compound 346, (±)-cis-5-(3-hydroxyoxetan-3-yl)-N-[4-methyl-1-(propan-2-yl)pyrrolidin-3-yl]-1,2-oxazole-3-carboxamide], the IC50 was more than 50 µM. The same measure, in the same setting: for `Cc1nc[nH]c1CN1C[C@H](C)[C@H](NC(=O)c2cc(C3CC3)on2)C1` (racemic) [compound 320, (±)-cis-5-cyclopropyl-N-{4-methyl-1-[(4-methyl-1H-imidazol-5-yl)methyl]pyrrolidin-3-yl}-1,2-oxazole-3-carboxamide] the value was 11.6 µM. As to `CCOC(=O)C1CC1CN1C[C@H](C)[C@H](NC(=O)c2cc(C3CC3)on2)C1` (stereo in doubt) [compound 176, cis-ethyl 2-{[3-(5-cyclopropyl-1,2-oxazole-3-amido)-4-methylpyrrolidin-1-yl]methyl}cyclopropane-1-carboxylate], the IC50 was found to be 5.28 µM. As to `C[C@@H]1CN(c2ncccn2)C[C@H]1NC(=O)c1cc(C2CC2)on1` (racemic) [compound 315, (±)-trans-5-cyclopropyl-N-[4-methyl-1-(pyrimidin-2-yl)pyrrolidin-3-yl]-1,2-oxazole-3-carboxamide], the IC50 is more than 50 µM. Still for that read-out and setting: in the case of `C[C@@H]1CN(CC2CCNC2)C[C@H]1NC(=O)c1cc(C2CC2)on1` (mixture of isomers) [compound 161, (±)-trans-5-cyclopropyl-N-[4-methyl-1-(pyrrolidin-3-ylmethyl)pyrrolidin-3-yl]-1,2-oxazole-3-carboxamide] it was more than 50 µM; in that of `CC(=O)Nc1ccccc1N1C[C@@H](C)[C@H](NC(=O)c2cc(C3CC3)on2)C1` (racemic) [compound 295, (±)-trans-5-cyclopropyl-N-[1-(2-acetamido-phenyl)-4-methylpyrrolidin-3-yl]-1,2-oxazole-3-carboxamide], more than 50 µM.

Turning to `C[C@H]1CN(Cc2ccc3nonc3c2)C[C@H]1NC(=O)c1cc(C2CC2)on1` (racemic) [compound 222, (±)-cis-N-[1-(2,1,3-benzoxadiazol-5-ylmethyl)-4-methyl-pyrrolidin-3-yl]-5-cyclopropyl-1,2-oxazole-3-carboxamide], the IC50 came to 41.6 µM. On the same count and under the same terms, in the case of `C[C@@H]1CN(Cc2ccc(Cl)cc2)C[C@H]1NC(=O)c1cc(C2CC2)on1` (racemic) [compound 140, (±)-trans-N-{1-[(4-chlorophenyl)methyl]-4-methylpyrrolidin-3-yl]-5-cyclopropyl-1,2-oxazole-3-carboxamide] it was more than 50 µM; in that of `C[C@H]1CN(Cc2ccccc2)C[C@H]1NC(=O)c1cc(C2CC2)on1` (racemic) [compound 116, (±)-cis-N-([1-benzyl-4-methylpyrrolidin-3-yl)-5-cyclopropyl-1,2-oxazole-3-carboxamide], 4.2 µM. Still for that read-out and setting: in the case of `C[C@H]1CN(CC2CCC2)C[C@H]1NC(=O)c1cc(C2CC2)on1` (racemic) [compound 202, (±)-cis-N-[1-(cyclobutyl-methyl)-4-methyl-pyrrolidin-3-yl]-5-cyclopropyl-1,2-oxazole-3-carboxamide] it was 1.63 µM.

The test is the same for the next values; noted with them: Table 2; average of n = 1 to n = 50; read-out: SMYD2 Biochem IC50.
For the compound `C[C@H]1CN(S(C)(=O)=O)C[C@H]1NC(=O)c1cc(C2CC2)on1` (racemic) [compound 66, (±)-cis-5-cyclopropyl-N-(4-methyl-1-(methyl-sulfonyl)pyrrolidin-3-yl)isoxazole-3-carboxamide], the IC50 was more than 50 µM. The same measure, in the same setting: in the case of `C[C@@H]1CN(Cc2ccccn2)C[C@H]1NC(=O)c1cc(C2CC2)on1` (racemic) [compound 87, (±)-trans-5-cyclopropyl-N-(4-methyl-1-(pyridin-2-ylmethyl)pyrrolidin-3-yl)isoxazole-3-carboxamide] it was more than 50 µM; in that of `C[C@@H]1CN(C2CCNCC2)C[C@H]1NC(=O)c1cc(C2CC2)on1` (racemic) [compound 104, (±)-trans-5-cyclopropyl-N-((3S,4R)-4-methyl-1-(piperidin-4-yl)pyrrolidin-3-yl)isoxazole-3-carboxamide], more than 50 µM. Same read-out and setting: for `C[C@@H]1CN(C2CCN(C(=O)OC(C)(C)C)CC2)C[C@H]1NC(=O)c1cc(C2CC2)on1` (racemic) [compound 103, (±)-trans-tert-butyl 4-((3S,4R)-3-(5-cyclopropylisoxazole-3-carboxamido)-4-methylpyrrolidin-1-yl)piperidine-1-carboxylate] the value was more than 50 µM. Same read-out and setting: for `C[C@@H]1CN(C2CCNCC2)C[C@@H]1NC(=O)c1cc(C2CC2)on1` (racemic) [compound 81, (±)-cis-5-cyclopropyl-N-(4-methyl-1-(piperidin-4-yl)pyrrolidin-3-yl)isoxazole-3-carboxamide] the value was more than 50 µM.

As to `C[C@H]1CN(Cc2ccccn2)C[C@H]1NC(=O)c1cc(C2CC2)on1` (racemic) [compound 109, (±)-cis-5-cyclopropyl-N-(4-methyl-1-(pyridin-2-ylmethyl)pyrrolidin-3-yl)isoxazole-3-carboxamide], the IC50 worked out at 31.8 µM.

With `C[C@H]1C[C@@H](NC(=O)c2cc(C3CC3)on2)CN1` (racemic) [compound 63, (±)-cis 5-cyclopropyl-N-(5-methylpyrrolidin-3-yl)isoxazole-3-carboxamide], the IC50 was more than 50 µM. On the same count and under the same terms, in the case of `C[C@H]1C[C@@H](NC(=O)c2cc(C3CC3)on2)CN1C` (racemic) [compound 64, (±)-cis-5-cyclopropyl-N-(1,5-dimethylpyrrolidin-3-yl)isoxazole-3-carboxamide] it was more than 50 µM. The same measure, in the same setting: for `C[C@@H]1CN(C(=O)C2CCNCC2)C[C@H]1NC(=O)c1cc(C2CC2)on1` (racemic) [compound 94, (±)-trans-5-cyclopropyl-N-(4-methyl-1-(piperidine-4-carbonyl)pyrrolidin-3-yl)isoxazole-3-carboxamide] the value was more than 50 µM.
